Results: US20240067693A1, “POLYPEPTIDES AND USES THEREOF” (MEDIMMUNE LIMITED, priority 2020, published 2024)
Numbered stars: 1 amine (or outer) side, 2 acyl side, 3 side chain; on linkers, the order of the positions; unused ones are H or OH. Bridge positions count the residues as written; N and C are the ends. Square brackets hold non-standard residues; d marks the D form. Side chains are listed from the residue outwards. Peptide text beside a SMILES is read from it. * marks the point of attachment. C18 diacid = O=C(O)CCCCCCCCCCCCCCCCC(=O)*; γGlu = O=C(O)[C@H](CCC(=O)[*:2])N[*:1]; Dab = NCC[C@H](N)C(=O)O; Aib = CC(C)(N)C(=O)O

Key:
[1] = biological target: T1, human amylin receptor (calcitonin receptor co-expressed with receptor activity modifying protein, RAMP3) (hAMYR3) (Homo sapiens, UniProt O60896+P30988); experiment: cAMP production in 1321N1 cells with stable recombinant expression of human amylin receptor (hAMYR3); assay type: cell-based; conditions: for Ratio (selectivity hAMYR vs hCTR, ratio of EC50 values at the two receptors): EC50 hCTR / EC50 hAMYR3; for EC50: cAMP, 1321N1 cells, assay buffer with 0.1% BSA, read-out: EC50 (pM) hAMYR3
T1 construct: expressed in transfected cells
T1 sequence (P30988 25-474): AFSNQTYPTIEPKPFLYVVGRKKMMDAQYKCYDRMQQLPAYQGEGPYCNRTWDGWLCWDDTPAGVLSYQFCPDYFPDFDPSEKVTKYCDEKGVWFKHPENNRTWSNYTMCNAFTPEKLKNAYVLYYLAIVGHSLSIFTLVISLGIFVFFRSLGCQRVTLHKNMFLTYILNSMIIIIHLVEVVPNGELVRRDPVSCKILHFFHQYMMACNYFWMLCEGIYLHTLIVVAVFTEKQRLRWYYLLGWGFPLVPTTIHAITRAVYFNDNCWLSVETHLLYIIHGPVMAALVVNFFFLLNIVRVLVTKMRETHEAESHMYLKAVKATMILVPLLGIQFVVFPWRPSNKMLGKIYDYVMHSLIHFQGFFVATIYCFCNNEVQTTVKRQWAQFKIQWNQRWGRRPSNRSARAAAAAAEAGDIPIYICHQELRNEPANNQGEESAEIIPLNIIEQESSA
T1 sequence (O60896 24-148 partner): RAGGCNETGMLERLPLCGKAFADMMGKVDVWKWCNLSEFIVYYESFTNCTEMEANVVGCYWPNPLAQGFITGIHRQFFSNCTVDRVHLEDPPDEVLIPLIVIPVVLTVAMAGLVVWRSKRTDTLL
In short: (§1)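 Receptor-expressing cells (human receptors in 1321N1, rat receptors in HEK) incubated 30 min at room temperature with peptide in HBSS/HEPES pH 7.4, 0.1% BSA, 0.5 mM IBMX. cAMP read by HTRF; EC50 from 4-parameter fit as % of maximal amylin or calcitonin response.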

[2] = biological target: T2, human calcitonin receptor (hCTR) (Homo sapiens, UniProt P30988); experiment: cAMP production in 1321N1 cells with stable recombinant expression of human calcitonin receptor (hCTR); assay type: cell-based; conditions: cAMP, 1321N1 cells, assay buffer with 0.1% BSA; read-out: EC50 (pM) hCTR
T2 construct: expressed in transfected cells
T2 sequence (P30988 25-474): T1 sequence (P30988 25-474)
In short: as §1

Ratio (selectivity hAMYR vs hCTR, ratio of EC50 values at the two receptors) [1]	EC50 [1] [pM]	EC50 [2] [pM]	SMILES
7	404	2760	CC[C@H](C)[C@H](NC(=O)[C@@H]1CCCN1C(=O)CNC(=O)[C@H](Cc1ccccc1)NC(=O)[C@H](CC(N)=O)NC(=O)C(C)(C)NC(=O)[C@H](CO)NC(=O)[C@H](CO)NC(=O)[C@H](Cc1c[nH]cn1)NC(=O)[C@@H](NC(=O)[C@H](CC(C)C)NC(=O)[C@H](Cc1ccccc1)NC(=O)[C@H](CC(N)=O)NC(=O)[C@H](C)NC(=O)[C@H](CC(C)C)NC(=O)[C@H](CCCNC(=N)N)NC(=O)[C@H](CCC(N)=O)NC(=O)[C@@H](NC(=O)[C@H](C)NC(=O)[C@@H]1CSSC[C@H](NC(=O)[C@H](CCCCN)NC(=O)[C@@H](N)CCCCNC(=O)CC[C@H](NC(=O)CCCCCCCCCCCCCCCCC(=O)O)C(=O)O)C(=O)N[C@@H](CC(N)=O)C(=O)N[C@@H]([C@@H](C)O)C(=O)N[C@@H](C)C(=O)N[C@@H]([C@@H](C)O)C(=O)N1)[C@@H](C)O)C(C)C)C(=O)N[C@@H](CC(C)C)C(=O)N1CCC[C@H]1C(=O)N1CCC[C@H]1C(=O)N[C@H](C(=O)N[C@@H](CC(N)=O)C(=O)N[C@H](C(=O)NC(C)(C)C(=O)N[C@@H](CO)C(=O)N[C@@H](CC(N)=O)C(=O)N[C@H](C(=O)N[C@@H](Cc1ccc(O)cc1)C(N)=O)[C@@H](C)O)C(C)C)[C@@H](C)O [Peptide 81, K(γE-C18diacid)K[CNTATC]ATQRLANFLVHSS(Aib)NFGPILPPTNV(Aib)SNTY-amide] (H-K([γGlu-C18 diacid])KCNTATCATQRLANFLVHSS[Aib]NFGPILPPTNV[Aib]SNTY-NH2; disulfide 3-8; N-terminus assumed)
1.9	2530	4870	CC[C@H](C)[C@H](NC(=O)[C@@H]1CCCN1C(=O)CNC(=O)[C@H](Cc1ccccc1)NC(=O)[C@H](CC(N)=O)NC(=O)[C@H](CC(N)=O)NC(=O)[C@H](CO)NC(=O)[C@H](CO)NC(=O)[C@H](Cc1c[nH]cn1)NC(=O)C(C)(C)NC(=O)[C@H](CC(C)C)NC(=O)[C@H](Cc1ccccc1)NC(=O)[C@H](CC(N)=O)NC(=O)[C@H](C)NC(=O)[C@H](CC(C)C)NC(=O)[C@H](CCCNC(=N)N)NC(=O)[C@H](CCC(N)=O)NC(=O)[C@@H](NC(=O)[C@H](C)NC(=O)[C@@H]1CSSC[C@H](NC(=O)[C@H](CCCCN)NC(=O)[C@@H](N)CCCCNC(=O)CC[C@H](NC(=O)CCCCCCCCCCCCCCCCC(=O)O)C(=O)O)C(=O)N[C@@H](CC(N)=O)C(=O)N[C@@H]([C@@H](C)O)C(=O)N[C@@H](C)C(=O)N[C@@H]([C@@H](C)O)C(=O)N1)[C@@H](C)O)C(=O)N[C@@H](CC(C)C)C(=O)N1CCC[C@H]1C(=O)N1CCC[C@H]1C(=O)N[C@H](C(=O)N[C@@H](Cc1c[nH]cn1)C(=O)N[C@H](C(=O)NCC(=O)N[C@@H](CO)C(=O)N[C@@H](CCC(=O)O)C(=O)N[C@H](C(=O)N[C@@H](Cc1ccc(O)cc1)C(N)=O)[C@@H](C)O)C(C)C)[C@@H](C)O [Peptide 146] (H-K([γGlu-C18 diacid])KCNTATCATQRLANFL[Aib]HSSNNFGPILPPTHVGSETY-NH2; disulfide 3-8; N-terminus assumed)
12	200	2360	CC[C@H](C)[C@H](NC(=O)[C@@H]1CCCN1C(=O)CNC(=O)[C@H](Cc1ccccc1)NC(=O)[C@H](CC(N)=O)NC(=O)C(C)(C)NC(=O)[C@H](CO)NC(=O)[C@H](CO)NC(=O)[C@H](Cc1c[nH]cn1)NC(=O)[C@@H](NC(=O)[C@H](CC(C)C)NC(=O)[C@H](Cc1ccccc1)NC(=O)[C@H](CC(N)=O)NC(=O)[C@H](C)NC(=O)[C@H](CC(C)C)NC(=O)[C@H](CCCNC(=N)N)NC(=O)[C@H](CCC(N)=O)NC(=O)[C@@H](NC(=O)[C@H](C)NC(=O)[C@@H]1CSSC[C@H](NC(=O)[C@@H](N)CCCCNC(=O)CC[C@H](NC(=O)CC[C@H](NC(=O)CCCCCCCCCCCCCCCCC(=O)O)C(=O)O)C(=O)O)C(=O)N[C@@H](CC(N)=O)C(=O)N[C@@H]([C@@H](C)O)C(=O)N[C@@H](C)C(=O)N[C@@H]([C@@H](C)O)C(=O)N1)[C@@H](C)O)C(C)C)C(=O)N[C@@H](CC(C)C)C(=O)N1CCC[C@H]1C(=O)N1CCC[C@H]1C(=O)N[C@H](C(=O)N[C@@H](CC(N)=O)C(=O)N[C@H](C(=O)NCC(=O)N[C@@H](CO)C(=O)NC(C)(C)C(=O)N[C@H](C(=O)N[C@@H](Cc1ccc(O)cc1)C(N)=O)[C@@H](C)O)C(C)C)[C@@H](C)O [Peptide 91, K(γE-γE-C18diacid)[CNTATC]ATQRLANFLVHSS(Aib)NFGPILPPTNVGS(Aib)TY-amide] (H-K([γGlu-γGlu-C18 diacid])CNTATCATQRLANFLVHSS[Aib]NFGPILPPTNVGS[Aib]TY-NH2; disulfide 2-7; N-terminus assumed)
6	1130	6630	CC[C@H](C)[C@H](NC(=O)[C@H](C)NC(=O)[C@@H]1CCCN1C(=O)[C@H](Cc1ccccc1)NC(=O)[C@H](CC(N)=O)NC(=O)C(C)(C)NC(=O)[C@H](CO)NC(=O)[C@H](CO)NC(=O)[C@H](Cc1c[nH]cn1)NC(=O)[C@@H](NC(=O)[C@H](CC(C)C)NC(=O)[C@H](Cc1ccccc1)NC(=O)[C@H](CC(N)=O)NC(=O)[C@H](C)NC(=O)[C@H](CC(C)C)NC(=O)[C@H](CCCNC(=N)N)NC(=O)[C@H](CCC(N)=O)NC(=O)[C@@H](NC(=O)[C@H](C)NC(=O)[C@@H]1CSSC[C@H](NC(=O)[C@@H](N)CCCCNC(=O)CC[C@H](NC(=O)CC[C@H](NC(=O)CCCCCCCCCCCCCCCCC(=O)O)C(=O)O)C(=O)O)C(=O)N[C@@H](CC(N)=O)C(=O)N[C@@H]([C@@H](C)O)C(=O)N[C@@H](C)C(=O)N[C@@H]([C@@H](C)O)C(=O)N1)[C@@H](C)O)C(C)C)C(=O)N[C@@H](CC(C)C)C(=O)N[C@@H](CO)C(=O)N1CCC[C@H]1C(=O)N[C@H](C(=O)N[C@@H](CC(N)=O)C(=O)N[C@H](C(=O)NCC(=O)N[C@@H](CO)C(=O)N[C@@H](CCN)C(=O)N[C@H](C(=O)N[C@@H](Cc1ccc(O)cc1)C(N)=O)[C@@H](C)O)C(C)C)[C@@H](C)O [Peptide 124, K(γE-γE-C18diacid)[CNTATC]ATQRLANFLVHSS(Aib)NFPAILSPTNVGS(Dab)TY-amide] (H-K([γGlu-γGlu-C18 diacid])CNTATCATQRLANFLVHSS[Aib]NFPAILSPTNVGS[Dab]TY-NH2; disulfide 2-7; N-terminus assumed)
